The values that follow come from patent publication US11207325B2, “Triazolopyrimidine compounds and uses thereof” (Novartis AG, priority 2014, dated 2021).

The subject of this assay is H3K27 methylation in G401 cell. Briefly: ELISA (H3K27 methylation) assay. Format: cell-based. The following applies: Homo sapiens, G-401; ELISA Qualified assay (H3K27 methylation); read-out: (c) IC50 (μM), ELISA Qualified. An excerpt: ELISA (H3K27 Methylation) Assay
Background: An ELISA detects its analyte on a solid surface through an enzyme-linked reagent.
As to `Nc1ccc(-c2cnc(NCc3cccc4c3CCO4)n3cnnc23)cn1` [Example 48, 8-(6-aminopyridin-3-yl)-N-((2,3-dihydrobenzofuran-4-yl)methyl)-[1,2,4]triazolo[4,3-c]pyrimidin-5-amine], the IC50 was 0.261 µM.

In the case of `Cc1cc(-c2cnc(NCc3cccc4c3CCO4)n3cnnc23)ccc1C(=O)N(C)C` [Example 49, 4-(5-(((2,3-dihydrobenzofuran-4-yl)methyl)amino)-[1,2,4]triazolo[4,3-c]pyrimidin-8-yl)-N,N,2-trimethylbenzamide], the IC50 amounted to 0.366 µM.

Regarding `Clc1ccncc1-c1cnc(NCc2cccc3c2CCO3)n2cnnc12` [Example 50, 8-(4-chloropyridin-3-yl)-N-((2,3-dihydrobenzofuran-4-yl)methyl)-[1,2,4]triazolo[4,3-c]pyrimidin-5-amine], the IC50 amounted to 0.12 µM.

For the compound `Cc1ccc(-c2cnc(NCc3cccc4c3CCO4)n3cnnc23)cn1` [Example 52], the IC50 amounted to 0.106 µM.

For `CN(C)CCc1ccc(-c2cnc(NCc3cccc4c3CCO4)n3cnnc23)cn1` [Example 53, N-((2,3-dihydrobenzofuran-4-yl)methyl)-8-(6-(2-(dimethylamino)ethyl)pyridin-3-yl)-[1,2,4]triazolo[4,3-c]pyrimidin-5-amine], the IC50 worked out at 0.141 µM.

Regarding `COc1ncc(-c2cnc(NCc3cccc4c3CCO4)n3cnnc23)cn1` [Example 54, N-((2,3-dihydrobenzofuran-4-yl)methyl)-8-(2-methoxypyrimidin-5-yl)-[1,2,4]triazolo[4,3-c]pyrimidin-5-amine], the IC50 came out at 0.144 µM.

In the case of `CN(C)C(=O)c1ccc(-c2cnc(NCc3c(F)ccc4c3CCO4)n3cnnc23)cc1` [Example 55, 4-(5-(((5-fluoro-2,3-dihydrobenzofuran-4-yl)methyl)amino)-[1,2,4]triazolo[4,3-c]pyrimidin-8-yl)-N,N-dimethylbenzamide], the IC50 was 0.0131 µM.

As for `CS(=O)(=O)c1ccc(-c2cnc(NCc3c(F)ccc4c3CCO4)n3cnnc23)cn1` [Example 56, N-((5-fluoro-2,3-dihydrobenzofuran-4-yl)methyl)-8-(6-(methylsulfonyl)pyridin-3-yl)-[1,2,4]triazolo[4,3-c]pyrimidin-5-amine], the IC50 came out at 0.0493 µM.

With `Cc1ccc(-c2cnc(NCc3c(F)ccc4c3CCO4)n3cnnc23)cn1` [Example 57, N-((5-fluoro-2,3-dihydrobenzofuran-4-yl)methyl)-8-(6-methylpyridin-3-yl)-[1,2,4]triazolo[4,3-c]pyrimidin-5-amine], the IC50 was determined as 0.0334 µM.

In the case of `Nc1cc(F)c(-c2cnc(NCc3cccc4c3CCO4)n3cnnc23)cn1` [Example 58, 8-(6-amino-4-fluoropyridin-3-yl)-N-((2,3-dihydrobenzofuran-4-yl)methyl)-[1,2,4]triazolo[4,3-c]pyrimidin-5-amine], the IC50 was determined as 0.124 µM.

With `Cc1noc(C)c1-c1cnc(NCc2cccc3c2CCO3)n2cnnc12` [Example 59, N-((2,3-dihydrobenzofuran-4-yl)methyl)-8-(3,5-dimethylisoxazol-4-yl)-[1,2,4]triazolo[4,3-c]pyrimidin-5-amine], the IC50 was 0.086 µM.

As to `Cc1ncc(-c2cnc(NCc3cccc4c3CCO4)n3cnnc23)cn1` [Example 60, N-((2,3-dihydrobenzofuran-4-yl)methyl)-8-(2-methylpyrimidin-5-yl)-[1,2,4]triazolo[4,3-c]pyrimidin-5-amine], the IC50 came to 0.299 µM.

On to `CN(C)c1ccc(-c2cnc(NCc3cccc4c3CCO4)n3cnnc23)cn1` [Example 61, N-((2,3-dihydrobenzofuran-4-yl)methyl)-8-(6-(dimethylamino)pyridin-3-yl)-[1,2,4]triazolo[4,3-c]pyrimidin-5-amine], for which the IC50 turned out to be 0.175 µM.

Consider `N#Cc1ccc(-c2cnc(NCc3cccc4c3CCO4)n3cnnc23)cn1` [Example 62, 5-(5-(((2,3-dihydrobenzofuran-4-yl)methyl)amino)-[1,2,4]triazolo[4,3-c]pyrimidin-8-yl)picolinonitrile], for which the IC50 turned out to be 0.339 µM.

With `CCOc1ccc(-c2cnc(NCc3cccc4c3CCO4)n3cnnc23)cn1` [Example 63, N-((2,3-dihydrobenzofuran-4-yl)methyl)-8-(6-ethoxypyridin-3-yl)-[1,2,4]triazolo[4,3-c]pyrimidin-5-amine], the IC50 was 0.198 µM.

`Cc1c(-c2cnc(NCc3cccc4c3CCO4)n3cnnc23)cnn1C` [Example 64, N-((2,3-dihydrobenzofuran-4-yl)methyl)-8-(1,5-dimethyl-1H-pyrazol-4-yl)-[1,2,4]triazolo[4,3-c]pyrimidin-5-amine]: the IC50 stood at 0.0978 µM.

As to `c1cc(CNc2ncc(-c3ccc(C4CC4)nc3)c3nncn23)c2c(c1)OCC2` [Example 65, 8-(6-cyclopropylpyridin-3-yl)-N-((2,3-dihydrobenzofuran-4-yl)methyl)-[1,2,4]triazolo[4,3-c]pyrimidin-5-amine], the IC50 worked out at 0.11 µM.

Consider `COCCn1nc(C)c(-c2cnc(NCc3cccc4c3CCO4)n3cnnc23)c1C` [Example 66, N-((2,3-dihydrobenzofuran-4-yl)methyl)-8-(1-(2-methoxyethyl)-3,5-dimethyl-1H-pyrazol-4-yl)-[1,2,4]triazolo[4,3-c]pyrimidin-5-amine], for which the IC50 came to 0.0803 µM.

As to `Cc1nn(CCO)c(C)c1-c1cnc(NCc2cccc3c2CCO3)n2cnnc12` [Example 67, 2-(4-(5-(((2,3-dihydrobenzofuran-4-yl)methyl)amino)-[1,2,4]triazolo[4,3-c]pyrimidin-8-yl)-3,5-dimethyl-1H-pyrazol-1-yl)ethanol], the IC50 was 0.521 µM.

As to `O=C(c1ccc(-c2cnc(NCc3cccc4c3CCO4)n3cnnc23)cn1)N1CCOCC1` [Example 68, (5-(5-(((2,3-dihydrobenzofuran-4-yl)methyl)amino)-[1,2,4]triazolo[4,3-c]pyrimidin-8-yl)pyridin-2-yl)(morpholino)methanone], the IC50 was 0.378 µM.

As for `Cc1cc(-c2cnc(NCc3cccc4c3CCO4)n3cnnc23)cnc1S(C)(=O)=O` [Example 70, N-((2,3-dihydrobenzofuran-4-yl)methyl)-8-(5-methyl-6-(methylsulfonyl)pyridin-3-yl)-[1,2,4]triazolo[4,3-c]pyrimidin-5-amine], the IC50 was 0.0839 µM.

On to `Cc1noc(C)c1-c1cnc(NCc2c(F)ccc3c2CCO3)n2cnnc12` [Example 71, 8-(3,5-dimethylisoxazol-4-yl)-N-((5-fluoro-2,3-dihydrobenzofuran-4-yl)methyl)-[1,2,4]triazolo[4,3-c]pyrimidin-5-amine], for which the IC50 is 0.0426 µM.

As for `CN1CCN(C(=O)c2ccc(-c3cnc(NCc4c(F)ccc5c4CCO5)n4cnnc34)cc2)CC1` [Example 72, (4-(5-(((5-fluoro-2,3-dihydrobenzofuran-4-yl)methyl)amino)-[1,2,4]triazolo[4,3-c]pyrimidin-8-yl)phenyl)(4-methylpiperazin-1-yl)methanone], the IC50 turned out to be 0.0097 µM.

Turning to `Cc1cc(-c2cnc(NCc3cccc4c3CCO4)n3cnnc23)cnc1N1CCOCC1` [Example 73, N-((2,3-dihydrobenzofuran-4-yl)methyl)-8-(5-methyl-6-morpholinopyridin-3-yl)-[1,2,4]triazolo[4,3-c]pyrimidin-5-amine], the IC50 turned out to be 0.332 µM.

Turning to `CS(=O)(=O)CCOc1ccc(-c2cnc(NCc3cccc4c3CCO4)n3cnnc23)cc1` [Example 75, N-((2,3-dihydrobenzofuran-4-yl)methyl)-8-(4-(2-(methylsulfonyl)ethoxy)phenyl)-[1,2,4]triazolo[4,3-c]pyrimidin-5-amine], the concentration for half-maximal inhibition (IC50) turned out to be 0.298 µM.

`Nc1ccncc1-c1cnc(NCc2cccc3c2CCO3)n2cnnc12` [Example 76, 8-(4-aminopyridin-3-yl)-N-((2,3-dihydrobenzofuran-4-yl)methyl)-[1,2,4]triazolo[4,3-c]pyrimidin-5-amine]: the IC50 came out at 0.32 µM.

On to `c1cc(CNc2ncc(-c3cncc(N4CCNCC4)c3)c3nncn23)c2c(c1)OCC2` [Example 77, N-((2,3-dihydrobenzofuran-4-yl)methyl)-8-(5-(piperazin-1-yl)pyridin-3-yl)-[1,2,4]triazolo[4,3-c]pyrimidin-5-amine], for which the IC50 is 0.581 µM.

Turning to `O=C(c1ccc(-c2cnc(NCc3cccc4c3CCO4)n3cnnc23)cn1)N1CCCC1` [Example 80, (5-(5-(((2,3-dihydrobenzofuran-4-yl)methyl)amino)-[1,2,4]triazolo[4,3-c]pyrimidin-8-yl)pyridin-2-yl)(pyrrolidin-1-yl)methanone], the IC50 was 0.132 µM.

`c1cc(CNc2ncc(-c3ccc(N4CCSCC4)nc3)c3nncn23)c2c(c1)OCC2` [Example 81, N-((2,3-dihydrobenzofuran-4-yl)methyl)-8-(6-thiomorpholinopyridin-3-yl)-[1,2,4]triazolo[4,3-c]pyrimidin-5-amine]: the IC50 amounted to 0.155 µM.

As to `Cc1nn(C(C)C)cc1-c1cnc(NCc2cccc3c2CCO3)n2cnnc12` [Example 82, N-((2,3-dihydrobenzofuran-4-yl)methyl)-8-(1-isopropyl-3-methyl-1H-pyrazol-4-yl)-[1,2,4]triazolo[4,3-c]pyrimidin-5-amine], the IC50 is 0.107 µM.

For `COCc1ncc(-c2cnc(NCc3cccc4c3CCO4)n3cnnc23)cc1C` [Example 83, N-((2,3-dihydrobenzofuran-4-yl)methyl)-8-(6-(methoxymethyl)-5-methylpyridin-3-yl)-[1,2,4]triazolo[4,3-c]pyrimidin-5-amine], the IC50 was 0.14 µM.

As to `CC(O)c1ccc(-c2cnc(NCc3cccc4c3CCO4)n3cnnc23)cn1` (stereo not shown) [Example 84, 1-(5-(5-(((2,3-dihydrobenzofuran-4-yl)methyl)amino)-[1,2,4]triazolo[4,3-c]pyrimidin-8-yl)pyridin-2-yl)ethanol], the IC50 was found to be 0.148 µM.

Take `Fc1ccncc1-c1cnc(NCc2cccc3c2CCO3)n2cnnc12` [Example 85, N-((2,3-dihydrobenzofuran-4-yl)methyl)-8-(4-fluoropyridin-3-yl)-[1,2,4]triazolo[4,3-c]pyrimidin-5-amine]: the IC50 was determined as 0.0333 µM.

Take `COCCc1ccc(-c2cnc(NCc3cccc4c3CCO4)n3cnnc23)cn1` [Example 86, N-((2,3-dihydrobenzofuran-4-yl)methyl)-8-(6-(2-methoxyethyl)pyridin-3-yl)-[1,2,4]triazolo[4,3-c]pyrimidin-5-amine]: the IC50 worked out at 0.0758 µM.

As a reminder, the IC50 is the concentration at which inhibition is half-maximal.
